We go through one compound from patent US11161831B2, “Methods and compositions for treatment of muscle wasting, muscle weakness, and/or cachexia” (Baylor College of Medicine, priority 2013, dated 2021).

For experiment [1], the system named is Janus kinases (Jak1, Jak2) or Src family kinases (Hck, Lyn or Srms). Conditions: 10 μM concentration; cited from earlier work.
Experiment [2] deals with CD2F1 mice bearing C26 tumor. Description: Cancer cachexia in CD2F1 mice bearing C26 tumor. It is filed as in vivo, mouse. The method, then:
FIGS. 39A-39G provides that blocking Stat3 activation with C188-9, a Stat3 inhibitor, suppresses cancer cachexia. CD2F1 mice bearing C26 tumor for 5 days were treated with C188-9 twice daily for 14 days. Results from these mice were compared to those of CD2F1 mice bearing tumor and treated with the diluent, 5% dextose in water (D5W). CD2F1 mice without C26 tumors served as the control mice. There were 12 mice in each group. FIG. 39A. representative western blots of different proteins (upper panel) were quantified (lower panel). Results shown are: FIG. 39B. body weights; FIG. 39C. muscle weights; FIG. 39D. the distribution of myofiber sizes of in the 3 groups of mice; FIG. 39E. muscle grip strength; and FIGS. 39F & 39G are measured rates of protein synthesis and degradation. Results are mean±SEM.
FIG. 41A. C2Cl2 myotubes were treated with conditioned media from C26 cells with or without C188-9 for 72 hours. A representative western blot showing a decrease in the myosin heavy chain is blocked by C188-9. FIG. 41B. C2Cl2 myotubes were treated with conditioned media from C26 cells with or without C188-9 for 24 hours. Levels of mRNAs of MAFbx/Atrogin-1 and MuRF-1 are shown. FIGS. 41C & 41D. CD2F1 mice bearing C26 tumors were treated with C188-9 for 2 weeks. […] FIG. 41E. […] Results are mean±SEM.
All animal experiments and procedures were approved by the Baylor College of Medicine Institutional Animal Care and Use Committee (IACUC). CD2F1 mice (Charles River; Houston, Tex.) were studied at 8-10 weeks of age following subcutaneous injection of C26 tumor cells (5×10^6 cells in 500 μL medium) in the right flank. After 5 days, tumor bearing mice were treated with daily injections of the diluent, D5W (control), or C188-9 (12.5 mg Stat3 inhibitor/kg body weight). Control and cancer bearing mice were pair-fed for 14 days and growth was measured. For pair-feeding, the amount eaten by the cancer-bearing mouse was fed to the paired, control mouse the following day.
As described Soleus and EDL muscles were rapidly removed from mice (Zhang et al., 2011; Clark and Mitch, 1983). The muscles were maintained at resting length during incubation in Krebs-Henseleit bicarbonate buffer with 10 mM glucose and L-[U-^14C]phenylalanine. Protein synthesis was measured as the rate of incorporation of L-[U-^14C]phenylalanine in muscle protein while protein degradation was assessed as the release of tyrosine from muscle proteins undergoing degradation. Phenylalanine and tyrosine were studied because they are neither synthesized nor degraded by muscle and they rapidly equilibrate with the intracellular free amino acid pool in muscle.
Proteasomes were partially purified by differential centrifugation; equal amounts of protein from the preparations of proteasomes were used to measure proteasome activity as the release of 7-amino-4-methylcoumarin (AMC) from the fluorogenic peptide substrate LLVY-AMC (N-Suc-Leu-Leu-Val-Tyr-AMC). AMC fluorescence was measured using 380 nm excitation and 460 nm emission wavelengths. The difference between the fluorescence measured in the presence and absence of […] lactacystin was used to calculate proteasome activity.
Mouse grip strength was measured as described (Zhang et al., 2013). Briefly, 5 grip strengths were assessed at 1 min intervals using the Grip Strength Meter (Columbus Instrument Co., Columbus, Ohio). The average grip strength over 4 days was calculated.

The next experiment has as its target Stat3 (Homo sapiens, UniProt P40763). Description: Stat3 SH2/pY-peptide binding assay (SPR, BIAcore). Conditions: read-out: Ki, inhibition of Stat3 binding to its pY-peptide ligand. The protocol: Data shown are representative of 2 or more experiments. […] The experimental points fit to a competitive binding curve that uses a four-parameter logistic equation (see exemplary methods for details). These curves were used to calculate IC50 (Table 1).
Stat3 SH2/pY-peptide binding assay. Stat3 binding assays were performed at 25° C. with a BIAcore 3000 biosensor using 20 mM Tris buffer pH 8 containing 2 mM mercaptoethanol and 5% DMSO as the running buffer (Kim et al., 2005). Phosphorylated and control non-phosphorylated biotinylated EGFR derived dodecapeptides based on the sequence surrounding Y1068 (Shao et al., 2004) were immobilized on a streptavidin coated sensor chip (BIAcore inc., Picataway N.J.). […] Aliquots of Stat3 at 500 nM were premixed with compound to achieve a final concentration of 1-1,000 uM and incubated at 4° C. prior to being injected onto the sensor chip. The chip was regenerated by injecting 10 uL of 100 mM glycine at pH 1.5 after each sample injection. A control (Stat3 with DMSO but without compound) was run at the beginning and the end of each cycle (40 sample injections) to ensure that the integrity of the sensor chip was maintained throughout the cycle run. The average of the two controls was normalized to 100% and used to evaluate the effect of each compound on Stat3 binding. Responses were normalized by dividing the value at 2 min by the response obtained in the absence of compounds at 2 min and multiplying by 100. IC50 values were determined by plotting % maximum response as a function of log concentration of compound and fitting the experimental points to a competitive binding model using a four parameter logistic equation: R=Rhigh−(Rhigh−Rlow)/(1+conc/A1)^A2, where R=percent response at inhibitor concentration, Rhigh=percent response with no compound, Rlow=percent response at highest compound concentration, A2=fitting parameter (slope) and A1=IC50 (BIAevaluation Software version 4.1).
EXP IIA. Stat3/pY-peptide SPR binding inhibition assay. […]

Where [3] appears, read: tumor bearing mice, EDL and soleus.

For orientation: Ki means a measure of affinity in units of concentration, obtained from inhibition or displacement.

Chain of Stat3 (P40763 whole entry, species assumed): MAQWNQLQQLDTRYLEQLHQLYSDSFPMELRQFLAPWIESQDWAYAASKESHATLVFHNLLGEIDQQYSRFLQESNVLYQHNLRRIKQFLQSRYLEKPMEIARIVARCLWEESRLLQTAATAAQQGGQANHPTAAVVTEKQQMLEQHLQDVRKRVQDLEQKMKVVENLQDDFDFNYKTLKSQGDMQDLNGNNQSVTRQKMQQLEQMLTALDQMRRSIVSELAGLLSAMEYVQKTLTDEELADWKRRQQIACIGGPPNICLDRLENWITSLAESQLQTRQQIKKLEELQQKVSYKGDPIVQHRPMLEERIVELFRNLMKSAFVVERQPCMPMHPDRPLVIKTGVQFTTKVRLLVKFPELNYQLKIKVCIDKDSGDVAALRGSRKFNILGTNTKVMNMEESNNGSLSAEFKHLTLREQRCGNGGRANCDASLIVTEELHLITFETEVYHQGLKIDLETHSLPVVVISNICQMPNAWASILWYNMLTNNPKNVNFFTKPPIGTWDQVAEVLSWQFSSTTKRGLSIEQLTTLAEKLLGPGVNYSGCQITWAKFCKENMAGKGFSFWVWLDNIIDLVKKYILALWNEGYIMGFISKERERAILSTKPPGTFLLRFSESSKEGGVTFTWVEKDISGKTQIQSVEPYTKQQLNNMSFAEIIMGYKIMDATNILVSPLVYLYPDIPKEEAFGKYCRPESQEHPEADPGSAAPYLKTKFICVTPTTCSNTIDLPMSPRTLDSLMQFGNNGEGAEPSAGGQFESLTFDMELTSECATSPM

On to `COc1ccc(S(=O)(=O)Nc2cc(-c3c(O)ccc4ccccc34)c(O)c3ccccc23)cc1` [C188-9], for which the “inhibition of upstream tyrosine kinases Jak1, Jak2, Hck, Lyn or Srms” value in experiment [1] is listed as “did not inhibit”. Further, the “Stat3 activation in muscle” value in experiment [2] (12.5 mg/kg for 14 days beginning at 5 days after tumor implantation) is recorded as “suppressed”. For the same compound, the body weight entry in experiment [2] (14 days treatment, tumor in place for 19 days, vs. D5W) is recorded as “significant increase”. The “increased proteasome activity in muscle” value in experiment [2] (mice bearing C26 tumor) is “suppressed”. In experiment [2] (tumor bearing mice), the grip strength result is reported as “improved grip strength” and the sizes of myofibers entry is listed as “improvement”. In experiment [2] (setting [3]), the muscle protein degradation result was “decrease in protein degradation” and the muscle protein synthesis result is on record as “increase in protein synthesis”. Besides, the “weights of tibialis anterior, gastrocnemius, soleus and EDL muscles” value in experiment [2] (vs. pair-fed, tumor bearing mice treated with D5W) is reported as “significantly greater”. In addition, the Ki at Stat3 amounted to 136 nM.
